Experimental data reported in article PMC3653412 (European journal of pharmacology, 2012).

Biological target: complex I (NADH:ubiquinone oxidoreductase) (Rattus norvegicus, UniProt A6K8N6+P03889+Q641Y2)
Assay: oxygen consumption of isolated mitochondria, Clark electrode
Assay type: biochemical
Settings: read-out: % inhibition at 0.5 mM

Compound `FC(F)OC(Cl)C(F)(F)F` (stereo not shown) [isoflurane] has an inhibition at 500 µM of 28 ± 10%.
